Measured values from ChEMBL document CHEMBL6074634, “Design, synthesis, and evaluation of novel oxyacanthine derivatives for anti-SARS-CoV-2 activity” (Bioorg Med Chem Lett, 2024).
Activity calls are given as the source filed them. The calls are words filed in the database; no cut-off is given here.

Key:
[1] = Cytotoxicity against African green monkey Vero E6 cells assessed as cell viability by CCK-8 assay; format: toxicity, cell-based, Vero C1008; details: African green monkey (Chlorocebus sabaeus)
[2] = AUC (0 to 24 hrs) in male ICR mouse at 2.5 mg/kg, iv measured upto 24 hrs by LC-MS/MS analysis; format: ADME, organism-based; details: in vivo
[3] = AUC (0 to 24 hrs) in male ICR mouse at 10 mg/kg, po measured upto 24 hrs by LC-MS/MS analysis; format: ADME, organism-based; details: in vivo
[4] = Cmax in male ICR mouse at 10 mg/kg, po measured upto 24 hrs by LC-MS/MS analysis; format: ADME, organism-based; details: in vivo
[5] = Half life in male ICR mouse at 2.5 mg/kg, iv measured upto 24 hrs by LC-MS/MS analysis; format: ADME, organism-based; details: in vivo
[6] = Half life in male ICR mouse at 10 mg/kg, po measured upto 24 hrs by LC-MS/MS analysis; format: ADME, organism-based; details: in vivo
[7] = Tmax in male ICR mouse at 10 mg/kg, po measured upto 24 hrs by LC-MS/MS analysis; format: ADME, organism-based; details: in vivo
[8] = Oral bioavailability in male ICR mouse at 10 mg/kg measured upto 24 hrs by LC-MS/MS analysis; format: ADME, organism-based; details: in vivo
[9] = test system: Severe acute respiratory syndrome coronavirus 2; experiment: Inhibition of SARS CoV-2 envelope (2-E) channel at 100 uM
[10] = Toxicity in mouse assessed as animal death at 10 to 200 mg/kg administered for 10 days; format: organism-based; details: in vivo, 240 h, dose 10-200 mg/kg, time 10 day
[11] = Toxicity in mouse assessed as body weight loss at 10 to 200 mg/kg administered for 10 days; format: organism-based; details: in vivo, 240 h, dose 10-200 mg/kg, time 10 day
[12] = Inhibition of SARS CoV-2 envelope (2-E) channel; design: species or system Severe acute respiratory syndrome coronavirus 2

## COc1cc2c3cc1Oc1c(OC)c(OC)cc4c1[C@H](Cc1ccc(cc1)Oc1cc(ccc1C(=O)NC1CCCC1)C[C@H]3N(C)CC2)N(C)CC4
[1]
  IC50: 22.5 µM

## COc1cc2c3cc1Oc1c(OC)c(OC)cc4c1[C@H](Cc1ccc(cc1)Oc1cc(ccc1C(=O)NC1CC1)C[C@H]3N(C)CC2)N(C)CC4
[1]
  IC50: 62.3 µM
[2]
  AUC(0-t) at 24 h: 1840 ng·h/mL
[3]
  AUC(0-t) at 24 h: 5000 ng·h/mL
[4]
  Cmax: 313 ng/mL
[5]
  half-life: 21.1 h
[6]
  half-life: 16 h
[7]
  Tmax: 1 h
[8]
  bioavailability: 68.1%
[9]
  inhibition: inactive

## COc1ccc(NC(=O)c2ccc3cc2Oc2ccc(cc2)C[C@H]2c4c(cc(OC)c(OC)c4Oc4cc5c(cc4OC)CCN(C)[C@@H]5C3)CCN2C)cc1
[1]
  IC50: 10.6 µM

## COc1cc2c3cc1Oc1c(OC)c(OC)cc4c1[C@H](Cc1ccc(cc1)Oc1cc(ccc1C(=O)Nc1ccccc1)C[C@H]3N(C)CC2)N(C)CC4
[1]
  IC50: 6.88 µM

## COc1cc2c3cc1Oc1c(OC)c(OC)cc4c1[C@H](Cc1ccc(cc1)Oc1cc(ccc1C(=O)NC(C)C)C[C@H]3N(C)CC2)N(C)CC4
[1]
  IC50: 26.4 µM

## CCCCCNC(=O)c1ccc2cc1Oc1ccc(cc1)C[C@H]1c3c(cc(OC)c(OC)c3Oc3cc4c(cc3OC)CCN(C)[C@@H]4C2)CCN1C
[1]
  IC50: 22.5 µM

## COc1cc2c3cc1Oc1c(OC)c(OC)cc4c1[C@H](Cc1ccc(cc1)Oc1cc(ccc1C(=O)NCCOCCO)C[C@H]3N(C)CC2)N(C)CC4
[1]
  IC50: 123 µM

## COc1cc2c3cc1Oc1c(OC)c(OC)cc4c1[C@H](Cc1ccc(cc1)Oc1cccc(c1)C[C@H]3N(C)CC2)N(C)CC4
[1]
  IC50: 17.1 µM

## COc1cc2c3cc1Oc1c(OC)c(OC)cc4c1[C@H](Cc1ccc(cc1)Oc1cc(ccc1C(N)=O)C[C@H]3N(C)CC2)N(C)CC4
[1]
  IC50: 63.2 µM
[2]
  AUC(0-t) at 24 h: 4120 ng·h/mL
[3]
  AUC(0-t) at 24 h: 12800 ng·h/mL
[4]
  Cmax: 854 ng/mL
[5]
  half-life: 17.1 h
[6]
  half-life: 12.5 h
[7]
  Tmax: 1.75 h
[8]
  bioavailability: 77.4%
[10]
  Activity: Non-toxic
[11]
  Activity: Non-toxic
[12]
  IC50: 0.78 µM

## COc1cc2c3cc1Oc1c(OC)c(OC)cc4c1[C@H](Cc1ccc(cc1)Oc1cc(ccc1C(=O)NC15CC6CC(CC(C6)C1)C5)C[C@H]3N(C)CC2)N(C)CC4
[1]
  IC50: 4.9 µM

## COc1cc2c3cc1Oc1c(OC)c(OC)cc4c1[C@H](Cc1ccc(cc1)OC1C=C(Cc5[nH]c(=O)oc51)C[C@H]3N(C)CC2)N(C)CC4 (some centres undefined)
[1]
  IC50: 14.8 µM

## COc1cc2c3cc1Oc1c(OC)c(OC)cc4c1[C@H](Cc1ccc(cc1)Oc1cc(ccc1C(=O)N1CCCCC1)C[C@H]3N(C)CC2)N(C)CC4
[1]
  IC50: 24.6 µM

## C=CC(=O)Nc1ccc2cc1Oc1ccc(cc1)C[C@H]1c3c(cc(OC)c(OC)c3Oc3cc4c(cc3OC)CCN(C)[C@@H]4C2)CCN1C
[1]
  IC50: 31.1 µM

## COc1cc2c3cc1Oc1c(OC)c(OC)cc4c1[C@H](Cc1ccc(cc1)Oc1cc(ccc1C(C)=O)C[C@H]3N(C)CC2)N(C)CC4
[1]
  IC50: 29.4 µM

## COc1cc2c3cc1Oc1c(OC)c(OC)cc4c1[C@H](Cc1ccc(cc1)Oc1cc(ccc1C(=O)Nc1ccc(C(F)(F)F)cc1)C[C@H]3N(C)CC2)N(C)CC4
[1]
  IC50: 10.5 µM

## C=C(C)c1ccc2cc1Oc1ccc(cc1)C[C@H]1c3c(cc(OC)c(OC)c3Oc3cc4c(cc3OC)CCN(C)[C@@H]4C2)CCN1C
[1]
  IC50: 6.13 µM

## COc1cc2c3cc1Oc1c(OC)c(OC)cc4c1[C@H](Cc1ccc(cc1)Oc1cc(ccc1C(=O)Nc1cccnc1)C[C@H]3N(C)CC2)N(C)CC4
[1]
  IC50: 26.4 µM

## COc1cc2c3cc1Oc1c(OC)c(OC)cc4c1[C@H](Cc1ccc(cc1)Oc1cc(ccc1C(=O)NC1CCC1)C[C@H]3N(C)CC2)N(C)CC4
[1]
  IC50: 33.9 µM

## COc1cc2c3cc1Oc1c(OC)c(OC)cc4c1[C@H](Cc1ccc(cc1)Oc1cc(cc([N+](=O)[O-])c1)C[C@H]3N(C)CC2)N(C)CC4
[1]
  IC50: 24.3 µM

## COc1cc2c3cc1Oc1c(OC)c(OC)cc4c1[C@H](Cc1ccc(cc1)Oc1cc(ccc1C)C[C@H]3N(C)CC2)N(C)CC4
[1]
  IC50: 10.3 µM

## CNC(=O)c1ccc2cc1Oc1ccc(cc1)C[C@H]1c3c(cc(OC)c(OC)c3Oc3cc4c(cc3OC)CCN(C)[C@@H]4C2)CCN1C
[1]
  IC50: 66.7 µM

## COC(=O)c1ccc2cc1Oc1ccc(cc1)C[C@H]1c3c(cc(OC)c(OC)c3Oc3cc4c(cc3OC)CCN(C)[C@@H]4C2)CCN1C
[1]
  IC50: 29.5 µM

## COc1cc2c3cc1Oc1c(OC)c(OC)cc4c1[C@H](Cc1ccc(cc1)Oc1cc(ccc1C1CC1)C[C@H]3N(C)CC2)N(C)CC4
[1]
  IC50: 10.9 µM

## COc1cc2c3cc1Oc1c(OC)c(OC)cc4c1[C@H](Cc1ccc(cc1)Oc1cc(ccc1O)C[C@H]3N(C)CC2)N(C)CC4 [AROMOLINE]
[1]
  IC50: 29.9 µM
[2]
  AUC(0-t) at 24 h: 1300 ng·h/mL
[3]
  AUC(0-t) at 24 h: 1790 ng·h/mL
[4]
  Cmax: 260 ng/mL
[5]
  half-life: 13.2 h
[6]
  half-life: 6.39 h
[7]
  Tmax: 0.33 h
[8]
  bioavailability: 34.5%
